# In US8802064B2, “Inhibitors of fatty acid amide hydrolase” (Infinity Pharmaceuticals, Inc., priority 2009, dated 2014):
# pKi: −log10 of the molar value.
# Target: T1, human FAAH (Homo sapiens, UniProt O00519)
# T1 construct: host or cells: COS-7 cells, transient transfection (FuGENE 6); 13,000 g membrane fraction solubilised in 1% Triton X-100
# T1 sequence (O00519 1-579): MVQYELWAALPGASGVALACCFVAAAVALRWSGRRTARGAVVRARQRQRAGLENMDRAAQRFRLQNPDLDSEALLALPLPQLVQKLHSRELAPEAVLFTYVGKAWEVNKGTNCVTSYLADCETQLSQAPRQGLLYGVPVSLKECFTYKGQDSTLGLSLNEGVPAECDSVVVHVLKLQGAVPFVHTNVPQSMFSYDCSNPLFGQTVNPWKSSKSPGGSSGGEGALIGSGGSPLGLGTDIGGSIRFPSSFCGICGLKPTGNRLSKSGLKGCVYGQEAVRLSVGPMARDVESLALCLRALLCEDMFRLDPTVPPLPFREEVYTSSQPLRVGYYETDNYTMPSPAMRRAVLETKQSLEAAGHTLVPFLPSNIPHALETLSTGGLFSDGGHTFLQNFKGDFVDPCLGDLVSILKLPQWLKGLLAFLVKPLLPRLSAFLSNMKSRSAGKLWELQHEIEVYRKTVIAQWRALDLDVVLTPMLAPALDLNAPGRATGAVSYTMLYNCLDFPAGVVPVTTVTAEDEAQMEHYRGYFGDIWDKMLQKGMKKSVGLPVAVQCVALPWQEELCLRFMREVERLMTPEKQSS
# Assay: Human FAAH inhibition assay (fluorescence, AMC arachidonoyl amide hydrolysis)
# Assay type: biochemical
# Conditions: human FAAH from transfected COS-7 cells; 20 μM AMC arachidonoyl amide; 30 min preincubation, 4 h reaction at room temperature
# Procedure: Exemplary compounds are set forth in the Examples provided below. Compounds were assayed as inhibitors of human FAAH using the method described in detail in Example 16.
# The following assays were used to determine the inhibition of FAAH: (1) a fluorescence-based assay (Manjunath et al., Analytical Biochemistry (2005) 343:143-151); and (2) a microsome-based fluorescent assay (Wang et al., Biomolecular Screening (2006) 1-9).
# COS-7 cells were split the day before, 1:5 into 150 mm×25 mm cell culture dishes (Corning Inc., Cat. No. 430599). Transient transfection took place at 30-40% confluency according to FuGENE 6 Transfection Reagent (Roche, Cat. No. 11814 443 001).
# The FuGENE transfection 6 reagent (45 uL) was added to 1410 μL of media (DMEM, serum free without pen/strep) in a 15 mL conical tube and incubated at room temp for 5 minutes, followed by the addition of FAAH plasmid DNA (15 μg) (OriGene Cat. No. TC119221, Genbank Accession No. NM_001441.1, 0.67 ug/uL) and a further incubation of 15 minutes at room temperature. The resulting solution was added into one dish of 30-40% confluent COS-7 cells in a dropwise manner. The COS-7 cell dish was subsequently incubated for 48 hours. The cells were then harvested.
# Media was aspirated from the dishes and the cells rinsed with 10 mL PBS. The PBS was removed and 3 mL of PBS added to the dish. The dish was scraped to resuspend the cells, and the subsequent cell suspension collected into a 15 mL conical tube. The cells were pelleted by centrifugation at 1200 rpm for 5 minutes in a bench top centrifuge. PBS was removed and the cell pellet snap frozen in liquid nitrogen and stored at 80° C.
# COS-7 Cells FAAH purification: • (1) Fractionation: Frozen cell pellets from transient transfections were thawed on ice and resuspended in 12.5 mM Hepes pH 8.0, 100 mM NaCl, 1 mM EDTA (10 mL/0.2 g cell pellet). The pellets were dounce homogenized and then sonicated to produce cell extract. The cell extract was subsequently centrifuged at 1000 g to remove cellular debris. The pellet was discarded and the supernatant centrifuged at 13,000 g for 20 minutes. The pellet contained membrane bound FAAH. The supernatant was discarded and the pellet resolubilized. • (2) Resolubilization: The fraction of interest, (13,000 g, membrane fraction) was resuspended in 2.3 mL resuspension buffer (20 mM Hepes pH 7.8, 10% v/v Glycerol, 1 mM EDTA, 1% Triton X-100) and the sample incubated on ice for 1 hour and then centrifuged to remove any particulate matter. The supernatant containing solubilized human FAAH was aliquoted and snap frozen in liquid nitrogen and stored at 80° C. until use. • (3) Characterization: Protein Concentration determined by Bradford assay. • SDS gel and Western blot to confirm presence of FAAH • FAAH activity assay • Km determination—96-well assay • Linear dependence—96-well assay • Standard compound Ki determination—384-well assay
# Rat FAAH biochemical assays were carried out in a 96 well flat bottom black nontreated polystyrene plates (Corning Costar Catalogue #3915). FAAH reaction buffer: 50 mM Hepes (pH 7.5), 1 mM EDTA, 0.2% Triton X-100. FAAH substrate—AMC Arachidonoyl Amide (Cayman Chemicals Company, Catalog #10005098). The reaction was read in an Envision microtiter plate reader [Excitation filter 355 nm (40 nm bandpass); Emmision filter 460 nm (25 nm bandpass)]. The raw fluorescence was plotted on the y axis and the inhibitor concentration on the x axis to give a dose response inhibition curve. The data was fitted to a single site competitive inhibition equation, fixing the Km for the rat and human enzyme to 12 μM and 9 μM respectively.
# The principle of this assay was the hydrolysis of AMC-Arichodonoyl, a fluorescent analogue of Anandamide, which results in the formation of Arachidonic acid and AMC. The formation of AMC results in an increase in fluorescence (see, for example, Manjunath et al., Analytical Biochemistry (2005) 343:143-151; and Wang et al., Biomolecular Screening (2006) 1-9). […]
row,SMILES,pKi
1,Cn1ccc2cc(B(O)O)ccc2c1=O [Compound 1],7.00 to 8.00
2,O=c1c2ccc(B(O)O)cc2ccn1Cc1ccccc1 [Compound 2],7.00 to 8.00
3,O=c1c2ccc(B(O)O)cc2ccn1CCc1ccccc1 [Compound 3],≥ 8.00
4,CC(c1ccccc1)n1ccc2cc(B(O)O)ccc2c1=O (stereo not drawn) [Compound 4],7.00 to 8.00
5,CC(Cn1ccc2cc(B(O)O)ccc2c1=O)c1ccccc1 (stereo not drawn) [Compound 5],7.00 to 8.00
6,CC(Cc1ccccc1)n1ccc2cc(B(O)O)ccc2c1=O (stereo not drawn) [Compound 6],7.00 to 8.00
7,CCCCCCn1ccc2cc(B(O)O)ccc2c1=O [Compound 7],≥ 8.00
8,Cc1nc2cc(B(O)O)ccc2c(=O)n1C [Compound 8],< 6.00
9,Cc1nc2cc(B(O)O)ccc2c(=O)n1CCc1ccccc1 [Compound 9],7.00 to 8.00
10,O=c1c2ccc(B(O)O)cc2ncn1CCc1ccccc1 [Compound 10],≥ 8.00
11,O=c1c2cc(B(O)O)ccc2ccn1CCc1ccccc1 [Compound 11],7.00 to 8.00
12,O=C1c2ccc(B(O)O)cc2CCN1CCc1ccccc1 [Compound 12],≥ 8.00
13,O=c1c2ccc(B(O)O)cc2cnn1CCc1ccccc1 [Compound 13],≥ 8.00
14,O=c1[nH]c(CCc2ccccc2)nc2ccc(B(O)O)cc12 [Compound 14],6.00 to 7.00
15,O=C1c2ccc(B(O)O)cc2CN1CCc1ccccc1 [Compound 15],≥ 8.00
